Measured values from patent EP0565593B1, “REDUCING PESTICIDAL INTERACTIONS IN CROPS” (priority 1990, dated 1992).
Several values for one entry are separate records, joined by “and”; a condition that tells them apart may be missing. Identical values can stand only once. Like-named read-outs stand apart in the source and are kept apart here.

Assays:
[1] = system: velvetleaf (Abutilon theophrasti); assay: Greenhouse test, combination of Procedures II and III (Examples 1, 2; Tables 1, 2); assay type: in vivo; conditions: 3 weeks
Corn [2] = assay: Greenhouse test, combination of Procedures II and III: insecticide in-furrow or in cover layer, herbicide and antidote incorporated in cover layer (Examples 1-3, 6; Tables 1-3, 6); assay type: in vivo; conditions: for % Injury Corn: 3 weeks
Corn [3] = assay: Greenhouse test Procedure VI: biocide and antidote in furrow, herbicide PPI in cover layer (Examples 43-47, 59-61; Tables 42-46, 58-60); assay type: in vivo; conditions: Example 43; Antidotes 1, 7, 12, 33
Description: This procedure describes interaction among herbicide, biocide and antidote when the herbicide is incorporated in a soil cover layer and the biocide and the antidote are applied in a soil furrow containing crop seed before emergence of the crop. The soil and seeding depth were described in Procedure IV. A first container was designated as an untreated control, a second container was designated as a herbicide control, a third container was designated as a herbicide + biocide control and a fourth container as a herbicide + biocide + antidote test container. The biocide and antidote were formulated as granules. The biocide was applied to the soil furrows of the third and fourth containers at an application rate of 1.1 mg of active compound per cm of row. The antidote was applied to the soil furrow of the fourth container at an application rate of 0.37 mg of active compound per cm of row. A measured amount of the herbicide dispersed or dissolved in acetone was applied to a measured quantity of soil. The quantity of soil treated with the herbicide was thoroughly mixed to incorporate the herbicide. Samples of this soil were used to cover the seed beds of the second, third and fourth containers. For each test series, the seed bed of the first container was likewise covered by a soil layer not treated with herbicide and without biocide or antidote in the soil furrow.
The containers were then placed on a bench in a greenhouse. Watering was by subirrigation plus overhead irrigation after the plants emerged. All treatments were run in duplicate. Plant response was observed according to Procedure IV. Variations in this procedure will be noted in the examples.
In continuing tests to evaluate the variations of this invention, a series of tests were conducted to determine the efficacy of the above safeners in Examples 39-42 to alleviate corn injury induced by the interaction of various additional commercial sulfonylurea herbicides with COUNTER 15G insecticide. In this example, the tests were conducted according to Procedure VI above. In modifications of that procedure, herbicides were applied to soil samples as acetone/water suspensions, incorporated by shaking in a closed container, with subsamples used to cover furrow-treated 10.2 cm pots. Pots were subirrigated followed by overhead misting on days 6-10.
This example was designed to test the safening effect of those above safeners used in this test series to relieve corn injury by negative synergism induced by interaction of COUNTER 15G and three imidazolinone herbicides, i.e., imazaquin and imazapyr (used in the POE tests in Example 41) and AC 263222 (a.i. in CADRE® herbicide). As differing from the tests in Example 41, this test was a PPI test according to Procedure VI described above. Observation of test results (Table 43) were taken thirteen 913) days after in-furrow PPI preparation.
This example describes PPI tests to evaluate said test safeners in this series with analogs of the sulfonamide herbicides tested under POE herbicide application procedures described in Example 42. In these tests, conducted according to Procedure VI described above, Herbicide Nos. 20, 22 and 24 were applied PPI with the insecticide and antidote. Observations of tests results were made thirteen days after PPI initiation.
An additional three (3) sulfonamide herbicide analogs were tested simultaneously and under the same conditions described in Example 45.
Another test of this invention involved the safening effects of the safeners in this series against negative synergy inducted by the interaction of COUNTER 15G and a sulfonylurea herbicide (OUST®), Herbicide No. 13, and PURSUIT, an imidazolinone herbicide, No. 6. Test conditions were the same as those in Examples 43-46. Other procedures for applying herbicidal formulations are as described in Example 42. […]

Velvetleaf (VELE) [4] = assay type: in vivo, Abutilon theophrasti; conditions: […]
Corn [5] = assay: Greenhouse test Procedure VII: biocide and antidote in furrow, herbicide POE (Examples 39-42, 48-50, 56-58; Tables 38-41, 47-49, 55-57); assay type: in vivo; conditions: Herbicide No. 8 0.28 Kg/Ha POE + COUNTER 15G 227 g/305 m + antidote in furrow
Description: This procedure describes interaction among herbicide, biocide and antidote when the biocide and the antidote is applied to a soil furrow containing crop seed before emergence of the crop and the herbicide is applied after emergence of the crop and weeds. The soil and planting depth was described in Procedure IV. The containers for comparison, the biocide and antidote applications to soil furrows were described in Procedure VI. In this procedure, the seed beds of the first, second, third and fourth containers are covered by soil layers not treated with herbicide. The containers were then placed on a bench in a greenhouse and subirrigated as required for the duration of the test. The herbicide, dispersed or dissolved in water containing 0.25% v/v nonionic surfactant (X-77) was applied by a track sprayer (187 L/ha) to the emerged plants of the second, third and fourth containers about five days after planting. All treatments were run in duplicate. Plant response was observed according to Procedure IV. Variations in this procedure will be noted in the examples.
In this example, tests were conducted according to Procedure VII for the POE application of the herbicides following in-furrow application of COUNTER® 15G insecticide (BIOCIDE No. 1) and the antidote on the pre-planted test seeds. In this test, the herbicides were Nos. 1 (MON-12000), 10 (ALLY®) and #4 (HARMONY®) and the Antidote Nos. 1, 7, 12 and 33.
These in-furrow treatments comprised a 50-50 mix of blended granules of COUNTER with and without 5G granular antidotes at 7.4 + 7.4 mg/cm or 1.1 + 0.37 mg active ingredient (a.i.)/cm. The in-furrow initiation of the test was followed five (5) days later with POE application of the herbicides; observations were made eight (8) days later.
In another test, conducted simultaneously with that in Example 39, Herbicide Nos. 5 (chlorimuron ethyl, active ingredient in CLASSIC® herbicide), 7 (nicosulfuron, active ingredient in ACCENT® herbicide) and 15 (tribenuron methyl, active ingredient in EXPRESS® herbicide) were substituted as test herbicides.
In this example, using the same procedure as above, the following imidazolinone herbicides were used with the same insecticide/biocide and antidotes as above: Herb. No. 16 (imazaquin, a.i. in SCEPTER® herbicide; No. 19 (Code No. AC 222293, a.i. in ASSERT® herbicide); No. 6 (imazethapyr, a.i. in PURSUIT® herbicide and No. 18 (imazapyr, a.i. in ARSENAL® herbicide). Test results are shown in Table 40. Table 40
This example describes the testing of the above antidotes used in Examples 39-41 to safen negative synergy interactions between representative species of the class of herbicidal compounds identified as azolopyrimidine sulfonamides and COUNTER 15G. The same procedure used in the above examples was conducted in this test. In this test, the herbicides were formulated in 17% acetone and 83% water with 0.25% v/v X-77 surfactant.
In these tests (according to Procedure VII) the safeners in solution with acetone were applied in furrow to the soil, followed by COUNTER 15G granules at 227 g/305 m (8 oz./1000'). Applications were made in alternate rows in two separate 13.7 cm x 27.7 cm pans containing Dupo silt loam. Pans were seeded 1.3 cm deep, placed on benches in a greenhouse and subirrigated. BEACON was formulated in water with 0.25% v/v X-77 surfactant and applied by track sprayer at a rate of 187 L/Ha (20 gal/A). Weed species in this test were giant foxtail, shattercane and velvetleaf. The herbicide was applied five (5) days after PPI initiation and observation of test result (shown in Table 47) made eight (8) days later.
In Table 47 COUNTER 15G is abbreviated as "C" and the antidotes as "A" in the column headings which indicate the "C + A" ratios used in the tests. Control and COUNTER treatments are average of four (4) replications and COUNTER + Antidote treatments, average of 2 reps. […]

Giant foxtail (GIFT) = assay: whole plant or invertebrate; assay type: in vivo; conditions: […]; PPI; 14 days after PPI (Table 34)
Velvetleaf (VELE) [6] = assay: whole plant or invertebrate; assay type: in vivo, Abutilon theophrasti; conditions: […]; PPI; 14 days after PPI (Table 34)
Corn [7] = conditions: […]; PPI; 14 days after PPI (Table 34)
Shattercane (SHCA) = assay type: in vivo; conditions: […]
Corn [8] = conditions: […]
[9] = Ex. 2: Insecticide 2 3.36 Kg/Ha + Herbicide 2 4.48 Kg/Ha
[10] = Ex. 2: Insecticide 1 (0.23 Kg/Ha) + Herbicide 9 2.24 Kg/Ha
[11] = Ex. 2: Insecticide 2 3.36 Kg/Ha + Herbicide 9 2.24 Kg/Ha
[12] = observed 8 days later (Table 32)
[13] = observed 8 days later (Table 33)

With `CCOCN(C(=O)CCl)c1c(C)cccc1CC` [Herbicide No. 2, 2-Chloro-2'-ethyl-6'-methyl-N-(ethoxymethyl)acetanilide, reference compound] the “% Injury VELE” value [1, 9] was 35%, the “% Injury Corn” value (Corn [2]; Ex. 2: Insecticide 1 0.23 Kg/305m (ditto mark) + Herbicide 2 4.48 Kg/Ha (so in the source)) was 66% and 93% and the “% Injury Corn” value (Corn [2]; [9]) was 76%. For the same molecule, the “% Injury Corn” value (Corn [2]; Ex. 3: Herbicide 2 4.48 Kg/Ha) was 78%, the “% Injury Corn” value (Corn [2]; Ex. 3: Insecticide 3 (227 g) + Herbicide 2 4.48 Kg/Ha) was 83% and the “% Injury Corn” value (Corn [2]; Ex. 3: Insecticide 4 (227g) + Herbicide 2 4.48 Kg/Ha) was 95%.
With `CCNc1nc(Cl)nc(NC(C)C)n1` [Herbicide No. 9, 2-Chloro-4-(ethylamino)-6-(isopropylamino)-S-triazine, reference compound] the “% Injury VELE” value [1, 10] was 88%, the “% Injury VELE” value [1, 11] was 30% and the “% Injury Corn” value (Corn [2]; [10]) was 3%. The “% Injury Corn” value (Corn [2]; [11]) was 0%, the “injury to corn” value (Corn [2]; Ex. 2: combination of the insecticides (Nos. 1, 2) with atrazine) was “did not appear to be any significant injury” and the “% Injury Corn” value (Corn [2]; Ex. 3: Herbicide 9 2.24 Kg/Ha) was 0%. For the same molecule, the “% Injury Corn” value (Corn [2]; Ex. 3: Insecticide 3 (227 g) + Herbicide 9 2.24 Kg/Ha) was 0% and the “% Injury Corn” value (Corn [2]; Ex. 3: Insecticide 4 (227 g) + Herbicide 9 2.24 Kg/Ha) was 0%.
With `COc1nc(C)nc(NC(=O)NS(=O)(=O)c2ccccc2OCCCl)n1` [Herbicide No. 11, Benzenesulfonamide, 2-(2-chloroethoxy)-N-[[(4-methoxy-6-methyl-1,3,5-triazin-2-yl)amino]carbonyl]-, reference compound] the “safening of herbicide/COUNTER 15G corn injury by the antidotes” value (Corn [3]) was “effectively reduced corn injury”.
`COc1nc(C)nc(NC(=O)NS(=O)(=O)c2ccccc2Cl)n1` [Herbicide No. 12, Benzenesulfonamide, 2-chloro-N-[[(4-methoxy-6-methyl-1,3,5-triazin-2-yl)amino]carbonyl]-, reference compound] was tested, and the “safening of herbicide/COUNTER 15G corn injury by the antidotes” value (Corn [3]) was “effectively reduced corn injury”.
In the case of `COC(=O)c1ccccc1S(=O)(=O)NC(=O)Nc1nc(C)cc(C)n1` [Herbicide No. 13, reference compound], the “safening of herbicide/COUNTER 15G corn injury by the antidotes” value (Corn [3]) was “limited to nil”.
`COC(=O)c1ccccc1CS(=O)(=O)NC(=O)Nc1nc(OC)cc(OC)n1` [Herbicide No. 14, Benzoic acid, 2-[[[[[(4,6-dimethoxy-2-pyrimidinyl)amino]carbonyl]amino]sulfonyl]methyl]-, methyl ester, reference compound] was tested, and the “safening of herbicide/COUNTER 15G corn injury by the antidotes” value (Corn [3]) was “effectively reduced corn injury”.
In the case of `CCSC(=O)COC(c1ccccc1)c1ccccc1` [compound 51], the “% Inhibition VELE” value (Velvetleaf (VELE) [4]; [12]) was 85%, the “% Inhibition VELE” value (Velvetleaf (VELE) [4]; [13]) was 70% and the “% Corn Inhibition C:A Ratios 5” value (Corn [5]; C:A ratio 5) was 0%. The “% Corn Inhibition C:A Ratios 10” value (Corn [5]; C:A ratio 10) was 5%, the “% Corn Inhibition C:A Ratios 20” value (Corn [5]; C:A ratio 20) was 3% and the “% Corn Inhibition C:A Ratios 40” value (Corn [5]; C:A ratio 40) was 8%. For the same molecule, the “% Corn Inhibition C:A Ratios 80” value (Corn [5]; C:A ratio 80) was 10%, the “% Corn Inhibition C:A Ratios 160” value (Corn [5]; C:A ratio 160) was 10% and the “% Inhibition GIFT” value (Giant foxtail (GIFT)) was 65%. For the same molecule, the “% Inhibition VELE” value (Velvetleaf (VELE) [6]) was 90%, the “% Inhibition Corn” value (Corn [7]) was 25% and the “% Inhibition SHCA” value (Shattercane (SHCA); [12]) was 80%. For the same molecule, the “% Inhibition SHCA” value (Shattercane (SHCA); [13]) was 35%, the “% Inhibition Corn” value (Corn [8]; [12]) was 0% and the “% Inhibition Corn” value (Corn [8]; [13]) was 30%.
